This passage reports LC retention time results from the RepoRT retention time repository (doi:10.1016/j.foodchem.2021.129757).

Common to all, as to settings: stereoisomer not certain
A short description of data set [1]: RP, 100 × 0.5 mm, 2.7 µm, 45 °C, 0.015 mL/min, estimated dead time 0.83 min; A: water + 0.9% formic acid; B: acetonitrile + 0.9% formic acid; gradient (min/%B) 0/1 0.5/1 4/95 4.5/1 5/1.
Data set [2] can be described thus: RP, 50 × 0.5 mm, 2.7 µm, 35 °C, 0.01 mL/min, estimated dead time 0.62 min; A: water + 0.1% formic acid, pH 3; B: acetonitrile + 0.1% formic acid, pH 3; gradient (min/%B) 0/5 12/95 14/95 16/5.
Data set [3] can be described thus: RP, Phenomenex Synergi Hydro-RP, 150 × 2 mm, 4 µm, 30 °C, 0.5 mL/min, estimated dead time 0.6 min; A: water + 0.1% formic acid, pH 3; B: acetonitrile + 0.1% formic acid, pH 3; gradient (min/%B) 0/5 1/5 35/45 40/100 45/100.
Data set [4] can be described thus: RP, Phenomenex Luna Omega Polar C18, 100 × 2.1 mm, 1.6 µm, 40 °C, 0.5 mL/min, estimated dead time 0.44 min; A: water + 0.5% formic acid; B: acetonitrile + 0.5% formic acid; gradient (min/%B) 0/5 3/50 3.1/100 5/100 5.1/5 7/5.
Data set [5] in a line: RP, Phenomenex Luna C18, 150 × 4.6 mm, 3 µm, 25 °C, 0.5 mL/min, estimated dead time 3.2 min; A: water + 0.1% formic acid, pH 3; B: acetonitrile + 0.1% formic acid, pH 3; gradient (min/%B) 0/0 30/30 35/40 50/80 52/80 60/0 65/0.
The nature of data set [6]: RP, Phenomenex Luna Omega Polar C18, 100 × 2.1 mm, 1.6 µm, 40 °C, 0.5 mL/min, estimated dead time 0.44 min; A: water + 0.1% formic acid + 10 mM ammonium formate; B: acetonitrile; gradient (min/%B) 0/5 8/20 10/100 12/100 12.1/5 14/5.
A short description of data set [7]: RP, Agilent ZORBAX Eclipse XDB-C18, 100 × 2.1 mm, 1.8 µm, 50 °C, 0.4 mL/min, estimated dead time 0.55 min; A: water + 0.1% formic acid, pH 3; B: methanol + 0.1% formic acid, pH 3; gradient (min/%B) 0/2 10/100 14.5/100 14.51/2 16.5/2.
Data set [8] can be described thus: RP, Waters ACQUITY UPLC BEH Shield RP18, 100 × 2.1 mm, 1.7 µm, 30 °C, 0.6 mL/min, estimated dead time 0.37 min; A: water + 0.1% formic acid, pH 3; B: acetonitrile + 0.1% formic acid, pH 3; gradient (min/%B) 0/0 2/0 7/10 22/95 22.1/0 26/0.
A short description of data set [9]: RP, Merck Supelco SUPELCOSIL LC-C18, 250 × 4.6 mm, 5 µm, 40 °C, 1 mL/min, estimated dead time 2.6 min; A: water + 0.1% trifluoroacetic acid, pH 2; B: acetonitrile + 0.1% trifluoroacetic acid, pH 2; gradient (min/%B) 0/5 45/35 47/75 49/35 50/5.
Data set [10] in a line: Other, Phenomenex Kinetex PFP, 100 × 4.6 mm, 2.6 µm, 35 °C, 1.5 mL/min, estimated dead time 0.71 min; A: water + 0.1% trifluoroacetic acid, pH 2; B: acetonitrile + 0.1% trifluoroacetic acid, pH 2; gradient (min/%B) 0/1 7/7.5 14/7.6 17/10 18.5/12 20/12.5 24/30 25/90 25.1/1 32/1.
Data set [11] in a line: Other, Phenomenex Kinetex PFP, 100 × 4.6 mm, 5 µm, 45 °C, 0.6 mL/min, estimated dead time 1.8 min; A: water + 0.1% trifluoroacetic acid, pH 2; B: methanol; gradient (min/%B) 0/40 20/72 21/40.
A short description of data set [12]: RP, Agilent InfinityLab Poroshell 120 EC-C18, 100 × 3 mm, 2.7 µm, 25 °C, 0.4 mL/min, estimated dead time 1.1 min; A: water + 0.1% formic acid, pH 3; B: acetonitrile + 0.1% formic acid, pH 3; gradient (min/%B) 0/5 10/25 20/40 24/90 25/90 26/5 30/5.
Data set [13] can be described thus: RP, Waters ACQUITY UPLC HSS T3, 100 × 2.1 mm, 50 °C; A: water + 0.1% formic acid, pH 3; B: 30% methanol + 70% acetonitrile + 0.1% formic acid, pH 3; gradient (min/%B) 0/5 1/8 2/15 3/40 4/70 4.5/100 5/100 6.4/100 6.6/5 6.8/5 7/5.
The nature of data set [14]: RP, Merck LiChrospher RP-18, 250 × 4 mm, 5 µm, 35 °C, 0.3 mL/min, estimated dead time 6.7 min; A: water + 0.5% formic acid; B: acetonitrile + 0.5% formic acid; gradient (min/%B) 0/5 10/5 30/15 45/20 65/20 95/54 110/63 115/5 135/5.
Data set [15] can be described thus: RP, Waters ACQUITY UPLC HSS T3, 100 × 2.1 mm, 1.8 µm, 30 °C, 0.4 mL/min, estimated dead time 0.55 min; A: water + 0.1% formic acid, pH 3; B: acetonitrile + 0.1% formic acid, pH 3; gradient (min/%B) 0/0 2/0 15/100 22/100 22.1/0 26/0.
The nature of data set [16]: RP, Waters ACQUITY UPLC BEH C18, 100 × 2.1 mm, 1.7 µm, 65 °C, 0.4 mL/min, estimated dead time 0.55 min; A: water + 0.1% formic acid, pH 3; B: 80% acetonitrile + 20% acetone + 0.1% formic acid, pH 3; gradient (min/%B) 0/0 5/100 5.5/0 6/0.
Data set [17] in a line: RP, Waters ACQUITY UPLC BEH Shield RP18, 150 × 2.1 mm, 1.7 µm, 40 °C, 0.4 mL/min, estimated dead time 0.83 min; A: water + 0.1% formic acid, pH 3; B: acetonitrile + 0.1% formic acid, pH 3; gradient (min/%B) 0/0 30/50 31/100 37/100 37.1/0.
A short description of data set [18]: RP, Agilent ZORBAX RRHD Eclipse Plus C18, 50 × 2.1 mm, 1.8 µm, 30 °C, 0.4 mL/min, estimated dead time 0.28 min; A: water + 0.1% formic acid, pH 3; B: acetonitrile + 0.1% formic acid, pH 3; gradient (min/%B) 0/1 5/10 8/25 9.1/99 10/99 12/1.
The nature of data set [19]: RP, Agilent ZORBAX RRHD Eclipse Plus C18, 50 × 2.1 mm, 1.8 µm, 30 °C, 0.4 mL/min, estimated dead time 0.28 min; A: water + 0.1% formic acid, pH 3; B: acetonitrile + 0.1% formic acid, pH 3; gradient (min/%B) 0/1 5/10 8/25 9.1/99 10/99 12/99.
A short description of data set [20]: RP, Phenomenex Synergi Hydro-RP, 250 × 2 mm, 4 µm, 25 °C, 0.2 mL/min, estimated dead time 2.5 min; A: water + 0.1% formic acid, pH 3; B: acetonitrile + 0.1% formic acid, pH 3; gradient (min/%B) 0/0.5 7/0.5 12/12.5 25/16.3 47/35 48/65 50/65 50.1/0.5.
Data set [21] can be described thus: RP, Waters Atlantis T3, 100 × 2.1 mm, 3 µm, 40 °C, 0.3 mL/min, estimated dead time 0.73 min; A: water + 0.1% trifluoroacetic acid, pH 2; B: acetonitrile + 0.1% trifluoroacetic acid, pH 2; gradient (min/%B) 0/10 1/10 6/40 7/50 8/50 14/70 16/80 20/10 25/10.
Data set [22] in a line: RP, 150 × 2.1 mm, 2.6 µm, 40 °C, 0.35 mL/min, estimated dead time 0.94 min; A: water + 0.1% formic acid, pH 3; B: acetonitrile + 0.1% formic acid, pH 3; gradient (min/%B) 0/0 1/0 12.5/100 14/100 14.2/0 15/0.
The nature of data set [23]: RP, 150 × 2.1 mm, 2.6 µm, 40 °C, 0.35 mL/min, estimated dead time 0.94 min; A: water + 0.1% formic acid, pH 3; B: acetonitrile + 0.1% formic acid, pH 3; gradient (min/%B) 0/0 1/5 7/45 8.5/80 10.5/80 11/5 12/5.

Regarding `Oc1cc(O)c2c(c1)OC(c1ccc(O)c(O)c1)C(O)C2` (single isomer, unassigned; (-)) [(-)-Epicatechin], the LC retention time in data set [1] is 2.32 min; in data set [2] it was 3.43 min; in [3], 11.3 min; in data set [4], 1.99 min; in data set [5], 15.9 min; in [6] it was 4.95 min. Besides, the LC retention time in [7] was 3.7 min; in data set [8], 11.5 min; in data set [9], 16.8 min.

Consider `O=Cc1ccc(O)cc1O` [2,4-dihydroxybenzaldehyde], for which the LC retention time in [10] was 14.7 min.

For the compound `Cc1cccc(C(=O)NCC(=O)O)c1` [3-methylhippuric acid], in [10], the LC retention time is 14.8 min.

In the case of `Oc1cc(O)c2cc(O)c(-c3ccc(O)c(O)c3)[o+]c2c1` [Cyanidin], the LC retention time in data set [1] was 3.19 min; in data set [11], 10.8 min; in data set [4], 3.17 min; in data set [7], 3.52 min; in data set [9] it was 29.1 min; in data set [12], 5.63 min.

As for `O=c1c(O)c(-c2ccc(O)cc2)oc2cc(O)cc(O)c12` [Kaempferol], the LC retention time in data set [1] is 3.2 min; in [2] it was 6.31 min; in data set [3], 26.7 min; in [4], 3.7 min; in [5], 37.7 min; in [13], 3.88 min. Also, the LC retention time in data set [14] is 97.6 min; in [6] it was 9.66 min; in data set [15] it was 11.6 min; in data set [7], 6.86 min; in [16], 3.02 min; in data set [8], 16.6 min. The LC retention time was 24.5 min in data set [17]; 9.16 min in data set [18]; 9.29 min in data set [19]; 43.8 min in data set [9]; 14.1 min in [12]; 52.3 min in [20]. In addition, the LC retention time in [21] is 10.2 min.

On to `O=c1cc(-c2ccc(O)c(O)c2)oc2cc(O)cc(O)c12` [Luteolin], for which the LC retention time in data set [1] was 2.97 min; in data set [2], 5.79 min; in data set [11], 18.6 min; in data set [22], 7.14 min; in data set [23], 7.52 min; in data set [3], 22.6 min. Also, the LC retention time in data set [4] was 3.57 min; in [5] it was 42.1 min; in data set [13], 3.75 min; in data set [14] it was 91.1 min; in data set [6], 9.48 min; in data set [15], 10.8 min. For the same compound, the LC retention time in data set [7] was 6.42 min; in data set [8], 15.3 min; in data set [17], 20.2 min; in data set [12], 17.1 min; in data set [20] it was 47 min; in [21] it was 9.3 min.

As for `Oc1ccc(C=Cc2cc(O)cc(O)c2)cc1` [Resveratrol], the LC retention time in [1] is 2.88 min; in data set [2], 5.18 min; in data set [11] it was 10.8 min; in [3], 20 min; in data set [4] it was 2.96 min; in [5] it was 38.8 min. The LC retention time in data set [14] is 85.7 min; in data set [6] it was 9.3 min; in data set [15], 10.4 min; in data set [7], 5.24 min; in data set [16] it was 2.48 min; in data set [8] it was 14.7 min. Besides, the values for the LC retention time in data set [17], in data set [9] and in [12] were 17.9 min, 31.6 min and 14.7 min, respectively.

For the compound `O=C(C=Cc1ccc(O)c(O)c1)OC(Cc1ccc(O)c(O)c1)C(=O)O` (centres undefined) [Rosmarinic acid], the LC retention time in data set [1] was 2.28 min; in data set [2], 4.8 min; in data set [11], 9.57 min; in data set [3] it was 18.4 min; in data set [5] it was 30 min; in [14] it was 79.8 min. Besides, the LC retention time in data set [6] is 8.46 min; in data set [15] it was 9.87 min; in [7], 5.41 min; in data set [8], 13.7 min; in data set [17], 14.6 min; in [9] it was 31 min. The results for the LC retention time in data set [12], in [20] and in [21] were 11.5 min, 39.2 min and 8.18 min, respectively.
